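Assay format: 96-well plates, 48-hour exposure. GI50 is the concentration that inhibits growth by half. Definition used: TGI = concentration required for complete inhibition of growth.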
Assays:
Experiment in all cases: NCI-60 cell line screen, 48 h
[1] = test system: SNB-75 CNS
[2] = test system: OVCAR-3 ovarian
[3] = test system: PC-3 prostate
[4] = test system: U251 CNS
[5] = test system: SNB-19 CNS
[6] = test system: NCI-H23 lung
[7] = test system: UACC-62 melanoma
[8] = test system: TK-10 renal
[9] = test system: OVCAR-5 ovarian
[10] = test system: CCRF-CEM leukemia
[11] = test system: DU-145 prostate
[12] = test system: SF-539 CNS
[13] = test system: CAKI-1 renal
[14] = test system: HL-60(TB) leukemia
[15] = test system: MOLT-4 leukemia
[16] = test system: HOP-92 NSCLC
[17] = test system: SW-620 colon
[18] = test system: MDA-MB-231 breast
[19] = test system: M14 melanoma
[20] = test system: SK-MEL-28 melanoma
[21] = test system: SK-OV-3 ovarian
[22] = test system: COLO 205 colon
[23] = test system: SK-MEL-5 melanoma
[24] = test system: HT29 colon
[25] = test system: OVCAR-4 ovarian
[26] = test system: HOP-62 NSCLC
[27] = test system: MALME-3M melanoma
[28] = test system: MDA-MB-435
[29] = test system: BT-549 breast
[30] = test system: SF-295 CNS
[31] = test system: IGROV1 ovarian
[32] = test system: NCI/ADR-RES ovarian
[33] = test system: HCC-2998 colon
[34] = test system: UACC-257 melanoma
[35] = test system: SN12C renal
[36] = test system: SF-268 CNS
[37] = test system: OVCAR-8 ovarian
[38] = test system: HCT-15 colon
[39] = test system: RXF 393 renal
[40] = test system: SR leukemia
[41] = test system: 786-0 renal
[42] = test system: LOX IMVI melanoma
[43] = test system: NCI-H522 lung
[44] = test system: K-562 leukemia
[45] = test system: SK-MEL-2 melanoma
[46] = test system: HS 578T breast
[47] = test system: T-47D breast
[48] = test system: EKVX NSCLC
[49] = test system: KM12 colon
[50] = test system: RPMI-8226 leukemia
[51] = test system: A498 renal
[52] = test system: NCI-H226 lung
[53] = test system: A549 NSCLC
[54] = test system: ACHN renal
[55] = test system: HCT-116 colon
[56] = test system: UO-31 renal
[57] = test system: NCI-H460 lung

O=C(N/N=C/c1ccccc1O)C(O)(c1ccccc1)c1ccccc1
GI50 [1]: > 100 µM | TGI [1]: > 100 µM | GI50 [2]: 2.66 µM | TGI [2]: > 100 µM | GI50 [3]: > 100 µM | TGI [3]: > 100 µM | GI50 [4]: 4.77 µM | TGI [4]: > 100 µM | GI50 [5]: > 100 µM | TGI [5]: > 100 µM | GI50 [6]: > 100 µM | TGI [6]: > 100 µM | GI50 [7]: 15 µM | TGI [7]: > 100 µM | GI50 [8]: > 100 µM | TGI [8]: > 100 µM | GI50 [9]: > 100 µM | TGI [9]: > 100 µM | GI50 [10]: 2.26 µM | TGI [10]: > 100 µM | GI50 [11]: > 100 µM | TGI [11]: > 100 µM | GI50 [12]: > 100 µM | TGI [12]: > 100 µM | GI50 [13]: 2.36 µM | TGI [13]: > 100 µM | GI50 [14]: 2.88 µM | TGI [14]: > 100 µM | GI50 [15]: 4.46 µM | TGI [15]: > 100 µM | GI50 [16]: > 100 µM | TGI [16]: > 100 µM | GI50 [17]: > 100 µM | TGI [17]: > 100 µM | GI50 [18]: 15 µM | TGI [18]: > 100 µM | GI50 [19]: 50.5 µM | TGI [19]: > 100 µM | GI50 [20]: > 100 µM | TGI [20]: > 100 µM | GI50 [21]: > 100 µM | TGI [21]: > 100 µM | GI50 [22]: 3.43 µM | TGI [22]: > 100 µM | GI50 [23]: > 100 µM | TGI [23]: > 100 µM | GI50 [24]: 4.46 µM | TGI [24]: > 100 µM | GI50 [25]: 3.43 µM | TGI [25]: > 100 µM | GI50 [26]: 7.37 µM | TGI [26]: > 100 µM | GI50 [27]: > 100 µM | TGI [27]: > 100 µM | GI50 [28]: > 100 µM | TGI [28]: > 100 µM | GI50 [29]: > 100 µM | TGI [29]: > 100 µM | GI50 [30]: 4.5 µM | TGI [30]: > 100 µM | GI50 [31]: 3.83 µM | TGI [31]: > 100 µM | GI50 [32]: 7.65 µM | TGI [32]: > 100 µM | GI50 [33]: 17.4 µM | TGI [33]: > 100 µM | GI50 [34]: 5.99 µM | TGI [34]: > 100 µM | GI50 [35]: > 100 µM | TGI [35]: > 100 µM | GI50 [36]: 8.69 µM | TGI [36]: > 100 µM | GI50 [37]: 13.1 µM | TGI [37]: > 100 µM | GI50 [38]: 3.54 µM | TGI [38]: > 100 µM | GI50 [39]: > 100 µM | TGI [39]: > 100 µM | GI50 [40]: 4.29 µM | TGI [40]: > 100 µM | GI50 [41]: > 100 µM | TGI [41]: > 100 µM | GI50 [42]: 5.09 µM | TGI [42]: > 100 µM | GI50 [43]: 19.7 µM | TGI [43]: > 100 µM | GI50 [44]: 6.73 µM | TGI [44]: > 100 µM | GI50 [45]: 53.1 µM | TGI [45]: > 100 µM | GI50 [46]: > 100 µM | TGI [46]: > 100 µM | GI50 [47]: 8.02 µM | TGI [47]: > 100 µM | GI50 [48]: 3.6 µM | TGI [48]: > 100 µM | GI50 [49]: 9.93 µM | TGI [49]: > 100 µM | GI50 [50]: > 100 µM | TGI [50]: > 100 µM | GI50 [51]: > 100 µM | TGI [51]: > 100 µM | GI50 [52]: > 100 µM | TGI [52]: > 100 µM | GI50 [53]: 9.67 µM | TGI [53]: > 100 µM | GI50 [54]: 8.43 µM | TGI [54]: > 100 µM | GI50 [55]: 2.95 µM | TGI [55]: > 100 µM | GI50 [56]: 2 µM | TGI [56]: > 100 µM | GI50 [57]: 3.54 µM | TGI [57]: > 100 µM

— PubChem BioAssay (NCI)
